Measurements: patent US8986722B2, “Pest control composition” (priority 2010, dated 2015)

Legend:
[1] = HLB of polyglycerol fatty acid ester, Griffin formula 20(1−S/A); assay type: physicochemical; settings: from saponification and acid values
From the text: The HLB (Hydrophile-Lipophile Balance) is an index indicating degrees of hydrophilic properties and lipophilic properties of a surfactant and being shown by a numerical value of 0 to 20. […] Therefore, a surfactant having a low HLB is apt to adapt to a hydrophobic system and a surfactant having a high HLB is apt to adapt to a hydrophilic system.
As the HLB value of said polyglycerol fatty acid ester, a numerical value derived from the following calculation method which is an empirical formula by Griffin is applied. In this regard, as the below-described saponification and acid values, values analyzed in accordance with general test procedures of standards for food additives and standards of quasi-drug ingredients are used. HLB value=20(1−S/A)
S: Saponification value for an ester of a surfactant.
A: Acid value of a fatty acid constituting a surfactant.

[2] = Surface tension by Wilhelmy method (plate method); assay type: physicochemical; settings: 20° C., 0.1% by mass aqueous solution
Protocol: For surface tension in the present description, a numerical value measured by Wilhelmy method (plate method) is used. The principle of measurement is as described below. When a platinum plate is contacted with the surface of a liquid, the liquid rises along the plate. Then, surface tension acts along the periphery of the plate and a force drawing the plate into the liquid is generated. Thus in the method, this drawing force is measured and the surface tension is measured. Specifically, a 0.1% by mass aqueous solution of a sample nonionic surfactant is made as a measurement sample, which is measured by an automatic surface tension measuring machine (for example, DY-300 automatic surface tension meter, manufactured by Kyowa Interface Science Corp., Ltd.) by Wilhelmy method shown above at a temperature of 20° C. to determine the surface tension. […] The nonionic surfactant has a property to decrease the surface tension of an aqueous solution. For this reason, when an aqueous solution containing this adheres to the surface of another substance, “wettability” at said surface is improved. As a result, a diluent of the present invention composition containing said nonionic surfactant easily adheres to the surface of target pests and the surface of spray-target agricultural crops.

Molecule | HLB [1] | other results
decaglycerol erucate [SY Glyster OE-750] | 3.7 | –
polyglycerol condensed ricinoleate [SY Glyster CRS-75] | 3 | –
hexaglycerol octaoleic acid ester | about 4 | –
tetraglycerol tetraoleic acid ester | about 4 | –
decaglycerol decaoleate [SY Glyster DAO-7S] | 3.2 | HLB ([1]; listed as decaglycerol decaoleic acid ester): about 4
decaglycerol octaoleic acid ester | about 5 | –
decaglycerol monocaprate [SY Glyster MCA-750] | 16 | HLB ([1]; listed as decaglycerol monocapric acid ester): about 16
decaglycerol heptaoleic acid ester | about 5 | –
hexaglycerol heptaoleic acid ester | about 4 | –
hexaglycerol hexaoleic acid ester | about 4 | –
decaglycerol dodecaoleic acid ester | about 3 | –
diglycerol tetraoleic acid ester | about 2 | –
hexaglycerol condensed ricinoleate [SY Glyster CR-500] | 3 | HLB ([1]; listed as hexaglycerol-condensed ricinoleic acid ester): about 3
tetraglycerol trioleic acid ester | about 5 | –
diglycerol monooleate [S-FACE O-201P] | 8 | HLB ([1]; listed as diglycerol monooleic acid ester): about 8
diglycerol trioleic acid ester | about 3 | –
decaglycerol nonaoleic acid ester | about 4 | –
decaglycerol erucate [SY Glyster NE-750] | 3.2 | –
hexaglycerol monooleate [SY Glyster MO-5S] | 11.6 | HLB ([1]; listed as hexaglycerol monooleic acid ester): about 11
decaglycerol undecaoleic acid ester | about 3 | –
diglycerol dioleic acid ester | about 4 | –
tetraglycerol pentaoleic acid ester | about 2 | –
tetraglycerol hexaoleic acid ester | about 2 | –
hexaglycerol pentaoleate [SY Glyster PO-5S] | 4.9 | HLB ([1]; listed as hexaglycerol pentaoleic acid ester): about 5
tetraglycerol monolaurate [SY Glyster ML-310] | 10.3 | HLB ([1]; listed as tetraglycerol monolauric acid ester): about 10
CCCCCCCCOC(=O)CC(C(=O)OCCCCCCCC)S(=O)(=O)O (stereo not drawn) [Newkalgen EP-70G, dioctyl sulfosuccinate] | – | surface tension [2]: 28 mN/m
